Laboratory results reported in patent publication US20080269326A1, “Use of 1-Phenyl-3-Dimethylamino-propane Compounds for Treating Neuropathic Pain” (GRUENENTHAL GmbH, priority 2007, published 2008).

Legend:
[1] = tested on: cold allodynia in Bennett animals; experiment: Bennett model (chronic constriction injury), cold allodynia on 4° C. cold metal plate; type: in vivo, rat
Procedure: The effectiveness in treating neuropathic pain was investigated in the Bennett model (chronic constriction injury; Bennett and Xie, 1988, Pain 33: 87-107).
(§1) Sprague-Dawley rats weighing 140-160 g are provided with four loose ligatures of the right sciatic nerve under nembutal narcosis. The animals develop a hypersensitivity in the paw innervated by the damaged nerve, which after a healing phase of one week is quantified over about four weeks by means of a 4° C. cold metal plate (cold allodynia). The animals are observed for two minutes on this plate and the number of retractive movements of the damaged paw are measured. The effect of the substance is determined with reference to the base value before application of the substance, at four different times over a period of one hour(15, 30, 45 and 60 minutes after application) and the resultant area under the curve (AUD) as well as the inhibition of cold allodynia at the individual measurement points is expressed in percent effect with reference to the vehicle control (AUD) and to the initial value (individual measurement points). The cohort size is n=10.

[2] = tested on: mechanical hyperalgesia in diabetic animals; experiment: Streptozotocin diabetic neuropathy, mechanical hyperalgesia (Randall and Sellito); type: in vivo, rat; conditions: diabetic rats
Procedure: Male Sprague-Dawley rats weighing 160-180 g received an intra-peritoneal injection of streptozotocin (75 mg/kg body weight) dissolved in pH 4.6 citrate buffer. One week later diabetic animals were identified by measuring the blood glucose level, and those with a blood glucose level of ≧17 mM were included in the study. Three and four weeks after administration of streptozotocin the mechanical reaction threshold was measured in diabetic animals by the method of Randall and Sellito (1957 Arch. Int. Pharmacody. […]:409-419) before (pre-test) and at various times after administration of the test substance or vehicle (post-test). […] The maximum pressure exerted on the rear paw was 250 g. The end point of the mechanical reaction threshold in grams was determined based on the reaction of the animal (withdrawal of the rear paw, vocalisation or evasive reaction). The size of the cohort in the individual dose stages was n=10. The maximum possible response in percent (% MPE=% of maximum possible effect) was calculated according to the formula:
% MPE=(post-test−pre-test)/(250−pre-test)×100.
ED50 values (dose at which 50% maximum inhibition occurred) were determined by regression analysis from the % MPE values at the time of the maximum effect.

[3] = tested on: cold allodynia in morphine-tolerant Bennett animals; experiment: Bennett model cold allodynia in morphine-tolerant animals; type: in vivo, rat
Procedure: as §1
The underlying question is the action of a test substance having a presumably opioid action mechanism in patients who are tolerant or treatment-resistant to morphine. […] The action of test substances in naive (non-morphine-tolerant) animals and morphine-tolerant animals is compared in Table 4. […] Morphine [10 mg/kg i.p.], Compound 9 [10 and 21.5 mg/kg i.p.], Compound 10 [0.46 and 1 mg/kg i.p.], Compound 4 [21.5 mg/kg i.p.] and Compound 11 [21.5 mg/kg i.p.] were tested analogously to Example 1.

[4] = tested on: tactile allodynia in Chung animals; experiment: Chung model (spinal nerve ligature), tactile allodynia, electronic von Frey; type: in vivo; conditions: Rattus norvegicus, ip, 0.5 h; rats, i.p., 30 minutes after administration
Procedure: Spinal nerve ligatures according to Kim & Chung (1992 Pain 50, 355-363) were applied to the left L5/L6 spinal nerves of male Spraque-Dawley rats. Four to six days after the operation the tactile threshold baseline (withdrawal threshold) was measured on the ipsilateral and contralateral rear paw by an electronic von Frey anaesthesiometer (IITC Life Science, USA). After the test and measurement of the baseline, morphine, gabapentin and some of the aforementioned compounds used according to the invention were administered. The tactile withdrawal thresholds were measured 30 minutes after the administration. The results are expressed as ED50 and % maximal possible effect (% MPE) on the ipsilateral side, in which the baseline is taken as 0% and the withdrawal threshold of a control group is taken as 100% MPE.

Question: `CC[C@@H](c1cccc(O)c1)[C@@H](C)CN(C)C` [Compound 9, (1R,2R)-3-(3-dimethylamino-1-ethyl-2-methylpropyl)-phenol] was tested. Which “Cold allodynia (% AUD) Naïve animals” value ([1]; 10 mg/kg i.p.) did it give?
Answer: 49.3 % AUD

Question: What about the “Cold allodynia (% AUD) Naïve animals” value ([1]; 21.5 mg/kg i.p.) of the same compound?
Answer: 53.4 % AUD

Question: What about the ED50 ([1]; Rattus norvegicus, ip, rats) of the same compound?
Answer: 13 mg/kg

Question: And the ED50 ([2]; Rattus norvegicus, ip, i.p., read-out: Mechanical hyperalgesia ED50 (95% confidence region))?
Answer: 8.9 mg/kg

Question: And the “Mechanical hyperalgesia Maximum effect in % MPE” value ([2]; 31.6 mg/kg i.p.)?
Answer: 100% (31.6 mg/kg) % MPE

Question: And the “maximum effect compared among the tested compounds” value ([2]; i.p.)?
Answer: highest maximum effect

Question: And the “Cold allodynia (% AUD) Morphine-tolerant animals” value ([3]; 10 mg/kg i.p.)?
Answer: 37.3 % AUD

Question: What about the “Cold allodynia (% AUD) Morphine-tolerant animals” value ([3]; 21.5 mg/kg i.p.) of the same compound?
Answer: 36.7 % AUD

Question: What about the ED50 [4] of the same compound?
Answer: 8.15 mg/kg
